Values joined by “and” are separate entries in the source; they are usually repeats but may differ in a detail not shown here. Identical values can stand only once. Marks after values point to notes of the source that are not given here.
How the values were obtained:
[1] = Safety and tolerability (adverse events) in healthy male participants; assay type: in vivo, human; conditions: for deaths or serious adverse events: 6 healthy men
Source text: Safety and tolerability measures included assessment of adverse events (AEs), serious adverse events (SAEs), clinical laboratory findings, vital signs (systolic and diastolic blood pressure and pulse rate), ECGs, and concurrent medications. An AE was defined as any untoward medical occurrence in a participant temporally associated with the use of an investigational product, whether or not considered related to the investigational product. […] The investigator or site staff was responsible for detecting, documenting, and reporting events that met the definition of an AE or SAE.

[2] = human; ref internal GSK reports; cited from earlier work
[3] = ref GSK data on file; cited from earlier work
[4] = coadministered with gemfibrozil; cited from earlier work
[5] = Blood and plasma total radioactivity pharmacokinetics after [14C]-GSK1278863; assay type: in vivo, human; conditions: for tmax, total radioactivity: median (range)
Procedure: As per standard practice for administration of radiolabeled drug, the IV and oral dosing solutions were analyzed for daprodustat via assessment of the radioactivity and through application of the predetermined specific activity. Whole blood samples were collected for measurement of each of the following: blood total radioactivity in period 2 and plasma total radioactivity in period 1, plasma concentrations of daprodustat, and the 6 predominant circulating metabolites in periods 1 and 2. Blood samples were collected at 1, 3, and 6 hours after dosing for blood assessments. Blood samples were collected for plasma assessments before dosing and at 0.50, 1, 1.25, 1.5, 2, 3, 4, 6, 8, 10, 12, 24, 36, 48, 72, 96, 120, and 144 hours after dosing.
Whole blood samples for unlabeled assays were collected into K3 ethylenediaminetetraacetic acid tubes, gently inverted several times and immediately placed on ice water. Samples were then centrifuged at 1500 × g for 15 minutes; the supernatant plasma was transferred to Nunc tubes and stored at −20°C before shipment. Samples for unlabeled daprodustat and specific assay metabolite measurements were shipped frozen to PPD Laboratories (Middleton, Wisconsin). Samples for radioactivity measurements were shipped frozen to either GSK Research and Development (Ware, Hertfordshire, UK; period 1) or Covance (period 2). Some period 2 plasma samples were subsequently analyzed by accelerator mass spectrometry (AMS) at Ware (UK) after being not quantifiable by LSC analysis.
Human urine, feces, and blood samples from treatment period 2 were analyzed by Covance using LSC. The LLQ for urine using LSC was 5.63 ng Eq/mL, using a 1000 μL aliquot of human urine. The LLQ for blood using LSC was 11.6 ng Eq/mL, using a 400 μL aliquot of human blood. The LLQ for feces using LSC was 25.3 ng Eq/mL, using a 0.2‐ to 0.4‐g aliquot of human feces. Treatment period 2 plasma samples that were not quantifiable following LSC analysis at Covance were subsequently reanalyzed for total radioactivity by AMS at GSK. The LLQ using AMS was 15.8 pg Eq/mL, using a 50 μL aliquot of human plasma.
Plasma daprodustat and [^14C]‐GSK1278863 plasma and blood total radioactivity concentration‐time data were analyzed by noncompartmental methods with WinNonlin Version 6.3 or above (Certara, Princeton, New Jersey). Calculations were based on the actual sampling times recorded during the study. From the plasma concentration‐time data, the following PK parameters were determined for daprodustat, its metabolites, [^14C]‐GSK1278863, and total radioactivity, as the data permitted: maximum observed plasma concentration (Cmax), time to Cmax (tmax), area under the plasma concentration–time curve (AUC) from time 0 to the last measurable concentration (AUC0‐t), AUC from time 0 extrapolated to infinity (AUC0–inf), and apparent terminal phase half‐life (t½), following oral and IV dosing. Additionally, daprodustat volume of distribution at steady state (Vss) and the total systemic clearance (CL) were derived following IV dosing, and daprodustat absolute bioavailability (F) was determined from the oral tablet and IV plasma PK data from treatment period 1 with the following equation: F=AUCpo/AUCIV×doseIV/dosepo
To assess relative exposure levels between parent daprodustat and the measured metabolites, the ratio of parent daprodustat/total radioactivity was calculated for the plasma PK parameters following IV and oral administration of [^14C]‐GSK1278863: Cmax, AUC0‐t, and AUC0‐inf.

[6] = Metabolite load, hepatic extraction, fraction escaping gut metabolism and fraction absorbed analyses; assay type: in vivo, human
Procedure: To assess the extent of metabolism and absorption of daprodustat, the plasma PK parameters: metabolite load, fraction escaping metabolism by the gut wall (Fg), hepatic extraction (Eh), and fraction absorbed (Fabs) were calculated on the basis of equations found in Harrell et al.[18] All parameters for analysis have been conducted on plasma results (assuming a blood to plasma ratio of 1) but when appropriate, the actual human blood:plasma ratio of 1.23 (internal GSK reports) of daprodustat has been applied to specific parameters to aid interpretation. (1) HepaticExtraction:Eh(blood)=CLbtotal−CLbrenal/QH (2) Fractionescapinglivermetabolism:Fh=1−Eh(blood) (3) MetaboliteLoadTRA=totalradioactivity:MLroute=AUCTRAroute−AUCroute/AUCTRAroute (4) Fractionescapinggut:Fg=1−MLoral−MLIV/Fh (5) Fractionabsorbed:Fabs=Foral/Fh×Fg

[7] = Period 1: 6‐mg oral tablet + 50‐μg IV
[8] = IV infusion, plasma, mean (SD), n = 5
[9] = oral solution, plasma, mean (SD)

## O=C(O)CNC(=O)C1C(=O)N(C2CCCCC2)C(=O)N(C2CCCCC2)C1=O [Daprodustat]
[1]; 3 of 6 participants
  participants reporting AEs: 50%
[1]; [7]
  Back pain: 1 (17) n (%)
  Decreased appetite: 1 (17) n (%)
  Headache: 1 (17) n (%)
  Musculoskeletal chest pain: 0 n (%)
  Myalgia: 1 (17) n (%)
  Oropharyngeal pain: 0 n (%)
[1]; Period 2: 25‐mg oral solution
  Back pain: 0 n (%)
  Decreased appetite: 0 n (%)
  Headache: 1 (17) n (%)
  Musculoskeletal chest pain: 1 (17) n (%)
  Myalgia: 0 n (%)
  Oropharyngeal pain: 1 (17) n (%)
[1]; Total
  Back pain: 1 (17) n (%)
  Decreased appetite: 1 (17) n (%)
  Headache: 1 (17) n (%)
  Musculoskeletal chest pain: 1 (17) n (%)
  Myalgia: 1 (17) n (%)
  Oropharyngeal pain: 1 (17) n (%)
[1]; both treatment periods
  deaths or serious adverse events: no deaths or serious or significant adverse events reported
[1]; both treatment periods, listed as daprodustat
  deaths or serious adverse events: No deaths or other SAEs
[1]; both treatment periods, N = 6
  total number of AEs reported: 7
[1]; oral tablet, microtracer IV or oral solution dose
  tolerability: generally well tolerated
[2]
  blood:plasma ratio: 1.23
[3]
  protein binding: > 99%
[4]
  increase in the plasma exposure of daprodustat: 18.6 fold
[5]; IV administration
  AUC0‐inf ratio of plasma daprodustat to plasma total radioactivity: 0.40
  AUC0‐t ratio of plasma daprodustat to plasma total radioactivity: 0.40
  Cmax ratio of plasma daprodustat to plasma total radioactivity: 0.68
[5]; IV infusion, plasma, mean (SD)
  AUC0‐t, total radioactivity: 6.62 (1.20) ng Eq • h/mL
  Cmax, total radioactivity: 3.04 (0.49) ng Eq/mL
[5]; [8]
  AUC0‐inf, total radioactivity: 6.79 (1.31) ng Eq • h/mL
  CL, total radioactivity: 7.59 (1.50) μg/[ng Eq • h/mL]
  Vss, total radioactivity: 36.3 (19.6) μg/[ng Eq/mL]
  t½, total radioactivity: 8.88 (6.58) h
[5]; IV infusion, plasma
  tmax, total radioactivity: 0.98 h
[5]; IV infusion, plasma, listed as [^14C]‐GSK1278863
  tmax, total radioactivity: 0.983 (0.983−1.25) h
[5]; following IV and oral solution administration, AUC ratio
  parent daprodustat as share of total circulating radioactivity in plasma: Approximately 40%
[5]; from Cmax in blood and plasma after oral solution
  blood:plasma ratio of total radioactivity: 0.46
[5]; oral solution administration
  AUC0‐inf ratio of plasma daprodustat to plasma total radioactivity: 0.42
  AUC0‐t ratio of plasma daprodustat to plasma total radioactivity: 0.43
  Cmax ratio of plasma daprodustat to plasma total radioactivity: 0.87
[5]; oral solution, blood, mean (SD), listed as [^14C]‐GSK1278863
  Cmax, total radioactivity: 302 ng Eq/mL and 302 (95.6) ng Eq/mL
[5]; oral solution, blood
  tmax, total radioactivity: 1.00 (1.00−3.00) h
[5]; oral solution, blood, t = 6 hours, mean (SD)
  AUC0‐t, total radioactivity: 835 (154) ^b ng Eq • h/mL
[5]; [9]
  AUC0‐inf, total radioactivity: 2312 (447) ng Eq • h/mL
  AUC0‐t, total radioactivity: 2239 (441) ng Eq • h/mL
  t½, total radioactivity: 62.4 (9.62) h
[5]; oral solution, plasma, mean (SD), listed as [^14C]‐GSK1278863
  Cmax, total radioactivity: 654 ng Eq/mL and 654 (219) ng Eq/mL
[5]; oral solution, plasma
  tmax, total radioactivity: 0.76 h
[5]; oral solution, plasma, listed as [^14C]‐GSK1278863
  tmax, total radioactivity: 0.758 (0.500−3.00) h
[6]; [14C] IV infusion, fraction, adjusted with blood:plasma ratio of 1.23, mean (SD), n = 3
  Eh (hepatic extraction): 0.181 (0.050)
[6]; [14C] IV infusion, mean (SD), n = 3
  MLIV (plasma metabolite load): 0.623 (0.080)
[6]; [14C] IV infusion, mean (SD), n = 3, listed as daprodustat
  MLIV (plasma metabolite load): ≈ 0.623 (0.080)
[6]; [14C] oral solution, fraction, reduced to Foral/Fh, blood:plasma ratio 1.23, mean (SD), n = 3
  Fabs (fraction absorbed): 0.811 (0.134)
[6]; [14C] oral solution, mean (SD), n = 3
  Fg (fraction escaping metabolism by the gut wall): > 1
[6]; [14C] oral solution, mean (SD), n = 6
  MLPO (plasma metabolite load): ~0.584 (0.060)
[6]; following oral solution administration
  daprodustat absorbed across the gastrointestinal tract (Fabs): ≈ 80% and 81% and ≈ 81%
[6]; from blood CL, human liver blood flow of 87 L/h
  hepatic extraction: ≈ 18% and 18%

— publication PMC9298194, “Clinical Pharmacokinetics of Daprodustat: Results of an Absorption, Distribution, and Excretion Study With Intravenous Microtracer and Concomitant Oral Doses for Bioavailability Determination” (Clinical Pharmacology in Drug Development, 2021)
